From the NIST ThermoML archive (doi:10.1021/acs.jced.5b00613)
Numbers after ± are expanded uncertainties.

Experiment: xn = mol fraction of the nth substance listed
Conditions: Liquid, Vibrating tube method

CCCCCCCCCC [decane] + CCCCCC
mass density [kg/m3]
Conditions | 100 kPa | 1000 kPa | 5000 kPa | 10000 kPa | 20000 kPa | 30000 kPa | 40000 kPa | 50000 kPa | 60000 kPa
278.15 K, x2 = 0.1992 | 732.4 ± 0.7 | 733 ± 0.7 | 735.8 ± 0.7 | 739.2 ± 0.7 | 745.6 ± 0.8 | 751.5 ± 0.8 | 756.9 ± 0.8 | 761.9 ± 0.9 | 767 ± 0.9
278.15 K, x2 = 0.3968 | 721.4 ± 0.7 | 722.1 ± 0.7 | 725.1 ± 0.7 | 728.7 ± 0.7 | 735.1 ± 0.8 | 741.4 ± 0.8 | 747 ± 0.9 | 752.2 ± 0.9 | 757.4 ± 1
278.15 K, x2 = 0.4978 | 715.4 ± 0.7 | 716 ± 0.7 | 719.2 ± 0.7 | 722.8 ± 0.7 | 729.5 ± 0.8 | 735.7 ± 0.8 | 741.4 ± 0.9 | 746.8 ± 0.9 | 752 ± 1
278.15 K, x2 = 0.5957 | 708.5 ± 0.7 | 709.1 ± 0.7 | 712.3 ± 0.7 | 716 ± 0.7 | 722.8 ± 0.8 | 729.3 ± 0.8 | 735.1 ± 0.9 | 740.6 ± 0.9 | 745.8 ± 1
278.15 K, x2 = 0.7978 | 692.6 ± 0.7 | 693.3 ± 0.7 | 696.8 ± 0.7 | 700.6 ± 0.8 | 707.9 ± 0.8 | 714.7 ± 0.8 | 720.8 ± 0.9 | 726.4 ± 1 | 731.9 ± 1
298.15 K, x2 = 0.1992 | 716.8 ± 0.7 | 717.5 ± 0.7 | 720.7 ± 0.7 | 724.6 ± 0.7 | 731.7 ± 0.8 | 738.1 ± 0.8 | 744 ± 0.9 | 749.6 ± 0.9 | 755 ± 1
298.15 K, x2 = 0.3968 | 705.6 ± 0.7 | 706.3 ± 0.7 | 709.7 ± 0.7 | 713.8 ± 0.7 | 721 ± 0.8 | 727.9 ± 0.8 | 734.2 ± 0.9 | 739.9 ± 0.9 | 745.4 ± 1
298.15 K, x2 = 0.4978 | 699.1 ± 0.7 | 699.6 ± 0.7 | 703.1 ± 0.7 | 707.3 ± 0.7 | 714.8 ± 0.8 | 721.7 ± 0.8 | 728 ± 0.9 | 733.8 ± 0.9 | 739.4 ± 1
298.15 K, x2 = 0.5957 | 692.1 ± 0.7 | 692.7 ± 0.7 | 696.2 ± 0.7 | 700.5 ± 0.8 | 708.2 ± 0.8 | 715.2 ± 0.8 | 721.6 ± 0.9 | 727.6 ± 0.9 | 733.3 ± 1
298.15 K, x2 = 0.7978 | 675.5 ± 0.7 | 676.3 ± 0.7 | 680.3 ± 0.7 | 684.8 ± 0.8 | 693 ± 0.8 | 700.4 ± 0.9 | 707.2 ± 0.9 | 713.4 ± 1 | 719.3 ± 1
323.15 K, x2 = 0.1992 | 697.5 ± 0.7 | 698.6 ± 0.7 | 702.3 ± 0.7 | 706.7 ± 0.7 | 714.8 ± 0.8 | 722.1 ± 0.8 | 728.6 ± 0.9 | 734.9 ± 0.9 | 740.7 ± 1
323.15 K, x2 = 0.3968 | 685.4 ± 0.7 | 686.5 ± 0.7 | 690.5 ± 0.7 | 695.3 ± 0.7 | 703.7 ± 0.8 | 711.3 ± 0.8 | 718.2 ± 0.9 | 724.6 ± 0.9 | 730.6 ± 1
323.15 K, x2 = 0.4978 | 678.2 ± 0.7 | 679.4 ± 0.7 | 683.6 ± 0.7 | 688.3 ± 0.8 | 697.1 ± 0.8 | 704.9 ± 0.8 | 711.9 ± 0.9 | 718.5 ± 1 | 724.6 ± 1
323.15 K, x2 = 0.5957 | 670.9 ± 0.7 | 672.1 ± 0.7 | 676.3 ± 0.7 | 681.3 ± 0.8 | 690.3 ± 0.8 | 698.3 ± 0.9 | 705.5 ± 0.9 | 712.1 ± 1 | 718.4 ± 1
323.15 K, x2 = 0.7978 | 653.4 ± 0.7 | 654.6 ± 0.7 | 659.3 ± 0.7 | 664.7 ± 0.8 | 674.3 ± 0.8 | 682.8 ± 0.9 | 690.4 ± 0.9 | 697.4 ± 1 | 703.9 ± 1.1
348.15 K, x2 = 0.1992 | 677 ± 0.7 | 678.1 ± 0.7 | 682.5 ± 0.7 | 687.7 ± 0.7 | 697.1 ± 0.8 | 705.3 ± 0.8 | 712.7 ± 0.9 | 719.5 ± 0.9 | 725.8 ± 1
348.15 K, x2 = 0.3968 | – | 665.7 ± 0.7 | 670.4 ± 0.7 | 676 ± 0.8 | 685.8 ± 0.8 | 694.4 ± 0.8 | 702.2 ± 0.9 | 709.3 ± 1 | 715.9 ± 1
348.15 K, x2 = 0.4978 | – | 658.2 ± 0.7 | 663.2 ± 0.7 | 668.8 ± 0.8 | 679 ± 0.8 | 687.8 ± 0.9 | 695.7 ± 0.9 | 703 ± 1 | 709.7 ± 1
348.15 K, x2 = 0.5957 | – | 650.3 ± 0.7 | 655.5 ± 0.7 | 661.4 ± 0.8 | 671.9 ± 0.8 | 681 ± 0.9 | 689.1 ± 0.9 | 696.4 ± 1 | 703.2 ± 1.1
348.15 K, x2 = 0.7978 | – | 631.9 ± 0.7 | 637.5 ± 0.7 | 644 ± 0.8 | 655.3 ± 0.8 | 665 ± 0.9 | 673.6 ± 1 | 681.4 ± 1 | 688.5 ± 1.1
373.15 K, x2 = 0.1992 | – | 657.7 ± 3 | 663 ± 3 | 669 ± 3 | 679.9 ± 3 | 689.3 ± 3 | 697.6 ± 3.1 | 705 ± 3.1 | 711.8 ± 3.1
373.15 K, x2 = 0.3968 | – | 645 ± 3 | 650.7 ± 3 | 657.1 ± 3 | 668.5 ± 3 | 678.3 ± 3 | 687 ± 3.1 | 694.8 ± 3.1 | 701.9 ± 3.1
373.15 K, x2 = 0.4978 | – | 636.7 ± 3 | 642.6 ± 3 | 649.4 ± 3 | 661.3 ± 3 | 671.4 ± 3 | 680.2 ± 3.1 | 688.2 ± 3.1 | 695.5 ± 3.1
373.15 K, x2 = 0.5957 | – | 628.1 ± 3 | 634.4 ± 3 | 641.4 ± 3 | 653.7 ± 3 | 664.1 ± 3 | 673.2 ± 3.1 | 681.3 ± 3.1 | 688.8 ± 3.1
373.15 K, x2 = 0.7978 | – | 608.4 ± 3 | 615.4 ± 3 | 623.2 ± 3 | 636.6 ± 3 | 647.8 ± 3.1 | 657.5 ± 3.1 | 666.2 ± 3.1 | 674 ± 3.1
423.15 K, x2 = 0.1992 | – | 614.4 ± 3 | 622.2 ± 3 | 630.6 ± 3 | 644.9 ± 3 | 656.8 ± 3 | 667.1 ± 3.1 | 676.2 ± 3.1 | 684.4 ± 3.1
423.15 K, x2 = 0.3968 | – | 599.1 ± 3 | 607.8 ± 3 | 617.1 ± 3 | 632.5 ± 3 | 645.3 ± 3.1 | 656.2 ± 3.1 | 665.7 ± 3.1 | 674.3 ± 3.1
423.15 K, x2 = 0.4978 | – | 589.4 ± 3 | 598.8 ± 3 | 608.6 ± 3 | 624.8 ± 3 | 637.9 ± 3.1 | 649 ± 3.1 | 658.8 ± 3.1 | 667.5 ± 3.1
423.15 K, x2 = 0.5957 | – | 578.9 ± 3 | 588.9 ± 3 | 599.2 ± 3 | 616.2 ± 3 | 629.8 ± 3.1 | 641.3 ± 3.1 | 651.3 ± 3.1 | 660.2 ± 3.1
423.15 K, x2 = 0.7978 | – | 554.6 ± 3 | 566.5 ± 3 | 578.7 ± 3 | 597.5 ± 3 | 612.4 ± 3.1 | 624.8 ± 3.1 | 635.7 ± 3.1 | 645.3 ± 3.1
463.15 K, x2 = 0.1992 | – | – | 586.3 ± 3 | 597.8 ± 3 | 616.1 ± 3 | 630.7 ± 3.1 | 642.9 ± 3.1 | 653.4 ± 3.1 | 662.7 ± 3.1
463.15 K, x2 = 0.3968 | – | – | 570.2 ± 3 | 583.3 ± 3 | 603.3 ± 3 | 618.8 ± 3.1 | 631.7 ± 3.1 | 642.8 ± 3.1 | 652.7 ± 3.1
463.15 K, x2 = 0.4978 | – | – | 559.5 ± 3 | 573.5 ± 3 | 594.6 ± 3 | 610.7 ± 3.1 | 624.1 ± 3.1 | 635.5 ± 3.1 | 645.6 ± 3.1
463.15 K, x2 = 0.5957 | – | – | 547.9 ± 3 | 563.1 ± 3 | 585.4 ± 3 | 602.3 ± 3.1 | 616 ± 3.1 | 627.6 ± 3.1 | 637.9 ± 3.2
463.15 K, x2 = 0.7978 | – | – | 521.1 ± 3 | 539.4 ± 3 | 565.1 ± 3 | 583.8 ± 3.1 | 598.5 ± 3.1 | 611 ± 3.1 | 621.8 ± 3.2
